Results: patent US20150203561A1, “BETA THYMOSIN FRAGMENTS” (REGENERX BIOPHARMACEUTICALS, INC., priority 2008, published 2015)

Legend:
[1] = test system: neuron survival; assay: Promotion of neuron survival (summary table); design: key: P = active; U = useful; conditions: summary of peptide uses
[2] = test system: tissue damage caused by UV radiation; assay: UV radiation tissue damage (summary table); design: key: P = active; U = useful; conditions: summary of peptide uses
[3] = test system: human dermal fibroblasts; assay: Collagen secretion, colorimetric assay; assay type: cell-based; design: key to Stimulates collagens / Inhibits collagens: P = active; U = useful; conditions: for Stimulates collagens / Inhibits collagens: summary of peptide uses
Protocol: (§1) Effect of Tb4 and peptides on collagen secretion • Human dermal fibroblasts (Fb) were cultured to 80% confluence • Cells were treated with 1 μg/ml Tb4 or peptides for 24, 48, or 72 hours. Cells were treated once/day. • Culture supernatants (n=3, experiments repeated 5 times) were assayed for collagen secretion using a colorimetric assay that detects collagen types I, II, III, IV and V, and possibly VII

[4] = test system: L1; assay: Stimulation of L1 production (summary table); design: key: P = active; U = useful; conditions: summary of peptide uses
[5] = test system: neurite outgrowth; assay: Promotion of neurite outgrowth (summary table); design: key: P = active; U = useful; conditions: summary of peptide uses
[6] = biological target: T1, IKKb (Homo sapiens, UniProt O14920); assay: Cell-free IkBa phosphorylation ELISA (NFkB signaling pathway); assay type: biochemical; design: key to Inhibits IkBa phosphorylation: P = active; U = useful
T1 sequence (O14920 1-756): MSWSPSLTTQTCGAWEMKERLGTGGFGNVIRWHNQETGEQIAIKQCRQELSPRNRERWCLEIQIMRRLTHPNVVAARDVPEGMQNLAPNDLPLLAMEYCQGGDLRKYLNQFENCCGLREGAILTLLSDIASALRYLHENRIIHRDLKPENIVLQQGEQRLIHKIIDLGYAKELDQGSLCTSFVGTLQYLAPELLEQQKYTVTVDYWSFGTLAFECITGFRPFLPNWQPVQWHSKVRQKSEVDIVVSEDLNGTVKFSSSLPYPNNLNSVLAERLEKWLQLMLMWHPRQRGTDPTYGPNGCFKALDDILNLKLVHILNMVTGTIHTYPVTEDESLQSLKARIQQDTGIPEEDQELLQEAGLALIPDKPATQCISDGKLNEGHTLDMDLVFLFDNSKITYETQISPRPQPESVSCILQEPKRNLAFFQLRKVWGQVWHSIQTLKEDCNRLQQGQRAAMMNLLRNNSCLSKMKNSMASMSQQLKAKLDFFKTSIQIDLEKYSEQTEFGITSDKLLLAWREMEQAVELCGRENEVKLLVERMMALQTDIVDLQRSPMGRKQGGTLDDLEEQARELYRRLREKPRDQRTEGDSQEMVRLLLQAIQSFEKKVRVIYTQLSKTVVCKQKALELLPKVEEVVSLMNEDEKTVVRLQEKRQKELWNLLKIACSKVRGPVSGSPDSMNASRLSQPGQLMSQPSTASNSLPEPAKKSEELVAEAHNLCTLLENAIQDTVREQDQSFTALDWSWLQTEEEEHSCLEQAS
Protocol: Effect of Tb4 and peptides on the NFkB signaling pathway • Cell-free assay • Prepared 1.0, 0.1, and 0.01 ng/ml solutions of Tb4 or peptides in kinase buffer supplied with kit • Added 10 μl of the solutions to wells of a 96-well plate coated with lkBa • IKKb (20 mU) was added to wells • 90 μl kinase reaction buffer (containing ATP) was added to the wells • ELISA to detect phosphorylated lkBa

[7] = test system: human dermal fibroblasts; assay: Elastin secretion, colorimetric assay; assay type: cell-based; design: key to Stimulates Elastin: P = active; U = useful; conditions: for Secretion of elastin: dermal Fb, 1 μg/ml once/day, 24, 48, or 72 hours; for Stimulates Elastin: summary of peptide uses
Protocol: as §1, with “elastin” for “collagen”, “6” for “5”, “• Data was analyzed using the t-test” for “that detects collagen types I, II, III, IV and V, and possibly VII”

[8] = test system: cell migration; assay: Stimulation of migration (summary table); assay type: cell-based; design: key: P = active; U = useful; conditions: summary of peptide uses
[9] = test system: human dermal fibroblasts; assay: LDH cytotoxicity assay in human dermal fibroblasts exposed to cytotoxic agents; assay type: cell-based; design: key to Protects from cytotoxicity: P = active; U = useful; conditions: for Protects from cytotoxicity: summary of peptide uses
Protocol: Dose Response Analysis of Peptide 3A • Human dermal fibroblasts (Fb, Cascade Biologics, OR) were cultured to 80% confluence • 2 ml CHX (0.002%) in basal medium ±1 μg/ml Tb4 or 1.0, 0.1, 0.01, or 0.001 μg/ml peptide 3A was added to Fb for 1, 2, 3, or 4 hours • 100 μl culture medium (n=4) was added to 100 μl LDH reagent and incubated at room temperature for 20 minutes • OD500 nm was read and averages ±SEM were calculated • Data was analyzed with probability of p≦0.05

[10] = test system: TNF-a-stimulated IL8 secretion; assay: Suppression of inflammation (summary table; IL-8 secretion); assay type: cell-based, human; design: key: P = active; U = useful; conditions: summary of peptide uses
Protocol: Analysis of IL-8 Secretion • Human corneal epithelial cells or dermal Fb were cultured to 80% confluence • Cells were pre-treated with 1 μg/ml Tb4 or peptides for one hour • Cells were stimulated with 10 ng/ml TNF-a in the presence or absence of Tb4 or peptides • Culture medium was analyzed for secreted IL-8 by ELISA (n=3, experiments repeated twice) • Data was analyzed using the t-test

[11] = test system: human dermal Fb; assay: CHX-induced apoptosis (APOPercentage dye) in human dermal Fb; assay type: cell-based; design: key to Inhibits apoptosis: P = active; U = useful; conditions: summary of peptide uses
Protocol: Effect of Tb4 and Peptide 3A on CHX-induced apoptosis • Human dermal Fb were cultured to 80% confluence • Fb were treated with 0.002% CHX+1 μg/ml Tb4 or peptide 3A, 4A or 6A for 1.5 hours • APOPercentage “dye” was added to the Fb cultures at a 1:50 dilution for an additional 30 minutes • Excess dye was washed from the cells, and digital images were captured. Cells dyed red were apoptotic • Adobe Photoshop was used to calculate the number of red pixels in six digitized images for each treatment • Statistical analysis was done using the t-test

[12] = test system: Transformed human corneal epithelial cells (HCET); assay: Collagen type IV secretion ELISA; assay type: cell-based; design: key to Stimulates collagen IV: P = active; U = useful; conditions: for Collagen type IV secretion: corneal epithelial cells, 1 μg/ml, 24 hours; for Stimulates collagen IV: summary of peptide uses
Protocol: Effect of Tb4 and peptides on collagen type IV secretion • Transformed human corneal epithelial cells (HCET) were cultured to 80% confluence • Cells were treated with 1 μg/ml Tb4 or peptides for 24 hours • Culture supernatant samples (n=3 per experiment, total of 4 experiments) were analyzed using a collagen type IV ELISA • Data was analyzed using the t-test

[13] = test system: p65 subunit of NFkB in human corneal epithelial cells; assay: NFkB nuclear translocation; assay type: cell-based; design: key: P = active; U = useful; conditions: summary of peptide uses
Protocol: Analysis of NFkB Nuclear Translocation • Human corneal epithelial cells were cultured to 80% confluence • Cells were pre-treated with 1 μg/ml Tb4 or peptide 4A or 6A for one hour • Cells were stimulated with 10 ng/ml TNF-a in the presence or absence of Tb4 or peptides for 15 minutes • Cells were fixed and labeled with antibodies to the p65 subunit of NFkB

Substance	Promotes neuron survival [1]	Inhibits tissue damage caused by UV radiation [2]	Protects tissue from UV radiation damage [2]	Stimulation of secretion of collagens ([3]; human dermal fibroblasts, 1 μg/ml once/day, after 3 days of treatment)	Stimulates collagens [3]	Stimulates L1 production [4]	Promotes neurite outgrowth [5]	Inhibits collagens [3]	Inhibition of IkBa phosphorylation (NFkB signaling pathway) ([6]; cell-free, 1.0, 0.1, and 0.01 ng/ml)	Inhibits IkBa phosphorylation ([6]; summary of peptide uses)	Secretion of elastin [7]	Stimulates Elastin [7]	Stimulates Migration [8]	Protection of Fb against the cytotoxic effects of CHX (LDH) ([9]; 1 μg/ml, 0.002% CHX, 2 hour exposure)	Protects from cytotoxicity [9]	Suppresses inflammation [10]	Inhibits apoptosis [11]	Collagen type IV secretion [12]	Stimulates collagen IV [12]	Inhibits NFkB translocation [13]
Ac-Glu-Lys-Asn-Pro-Leu-Pro-Ser-Lys-Glu-Thr-OH (Ac-EKNPLPSKET-OH) [Peptide 5B]	U	U	U	stimulates	P	U	U	–	–	–	–	–	–	–	–	–	–	–	–	–
Ac-Ile-Glu-Gln-Glu-Lys-Gln-Ala-Gly-Glu-Ser-OH (Ac-IEQEKQAGES-OH) [Peptide 6B]	U	U	U	–	–	U	U	P	may have an effect	P	–	–	–	–	–	–	–	–	–	–
Ac-Leu-Lys-Lys-Thr-Glu-Thr-Gln-OH (Ac-LKKTETQ-OH) [Peptide 4B]	U	U	U	–	–	U	U	–	–	–	stimulate	P	P	–	–	–	–	–	–	–
Ac-Leu-Lys-Lys-Thr-Glu-Thr-OH (Ac-LKKTET-OH) [Peptide 1B]	U	U	U	–	–	U	U	P	–	–	–	–	–	–	–	–	–	–	–	–
Ac-Met-Ala-Glu-Ile-Glu-Lys-Phe-Asp-Lys-Ser-OH (Ac-MAEIEKFDKS-OH) [Peptide 7B]	U	U	U	–	–	U	U	U	–	–	stimulate	U	–	–	–	–	–	–	–	–
Ac-SDKPDMAEIEKFDKS-OH [Peptide 3B]	U	U	U	–	–	U	U	P	–	–	–	–	–	protect	P	–	–	–	–	–
Ac-SDKPDMAEIEKFDKSKLKKTET-OH [Fragment Ab]	U	U	U	–	U	U	U	U	–	–	–	U	U	–	U	U	U	–	–	–
Ac-SDKPDMAEIEKFDKSKLKKTETQ-OH [Fragment Bb]	U	U	U	–	U	U	U	U	–	–	–	U	U	–	U	U	U	–	–	–
H-Glu-Lys-Asn-Pro-Leu-Pro-Ser-Lys-Glu-Thr-OH (H-EKNPLPSKET-OH) [Peptide 5A]	U	U	U	–	–	U	U	–	–	–	–	–	P	–	–	–	–	–	–	–
H-Ile-Glu-Gln-Glu-Lys-Gln-Ala-Gly-Glu-Ser-OH (H-IEQEKQAGES-OH) [Peptide 6A]	U	U	U	–	–	U	U	P	–	–	–	–	–	–	–	–	–	–	–	–
H-Leu-Lys-Lys-Thr-Glu-Thr-Gln-OH (H-LKKTETQ-OH) [Peptide 4A]	U	U	U	–	–	U	U	–	–	–	stimulates	P	–	–	–	–	–	stimulate	P	P
H-Met-Ala-Glu-Ile-Glu-Lys-Phe-Asp-Lys-Ser-OH (H-MAEIEKFDKS-OH) [Peptide 7A]	U	U	U	–	–	U	U	P	–	–	–	–	–	–	–	–	–	–	–	–
H-Ser-Asp-Lys-Pro-OH (H-SDKP-OH) [Peptide 2A]	U	U	U	–	–	U	U	P	–	–	–	–	–	–	–	–	–	stimulate	P	–
